Experimental data reported in patent US20240082242A1, “COMBINATION THERAPIES” (IMBRIA PHARMACEUTICALS, INC., priority 2021, published 2024).

Key:
explanted mouse hearts = assay: Langendorff ischemia-reperfusion protocol; conditions: for infarct size: 20 μM (each) perfusion, triphenyltetrazolium staining, control 68%; for reduction of myocardial infarct size: 20 μM, vs control
Experimental: Studies were conducted to evaluate the effect of CV-8814, a pFOX inhibitor, on protecting heart tissue from ischemia/reperfusion (I/R) injury. Similar studies were performed with trimetazidine (TMZ) as a representative pFOX reference compound. Studies were performed with TMZ alone and TMZ in combination with the metabolic enhancers (e.g., nicotinic acid) for a comparison of single agent and combination agent pharmacologic potencies. FIG. 25 is a schematic of the Langendorff Ischemia-Reperfusion protocol used to test the ability of various compounds to protect the heart from ischemic injury. Test compounds were dissolved at 20 μM in Krebs-Henseleit buffer and perfused through the tissue of mouse hearts at a constant pressure starting at time 0. For each treatment group, 10-18 hearts were tested. A Mikro-tip catheter was inserted into left ventricles to measure cardiac functions, including heart rate, coronary flow, left ventricular systolic and end-diastolic pressure, at the end of the baseline perfusion at 20 minutes. […] At the end of perfusion, hearts were cross-sectioned into five slices, and infarct size was measured by computerized planimetry of triphenyltetrazolium stained heart tissue sections. The concept of combining a pFOX inhibitor with metabolic enhancers (e.g. nicotinamide, nicotinic acid, and succinate) was evaluated in combination Langendorff I/R studies. The combinations included TMZ/nicotinamide/succinate (all at a concentration of 20 μM; coded TNS) and TMZ/nicotinic acid/succinate (all at a concentration of 20 μM; coded TNC).

[1] = system: TAC-induced heart failure in mice; assay: Transverse aortic constriction (TAC) model of heart failure; assay type: in vivo, mouse; conditions: for fibrosis of myocardial tissue after six weeks: Masson's trichome, percentage of fibrotic heart tissue, control 10.7±1; for left ventricular ejection fraction (EF) throughout the six-week study: third study, minipump
Experimental: Studies were conducted to evaluate and compare the efficacy of the reference compound TMZ with CV-8814 and CV-1018972 on ventricular remodeling, preservation of heart function and prevention of fibrosis in a transverse aortic constriction (TAC) model of heart failure in mice.
FIG. 30 is a schematic of the transverse aortic constriction (TAC) protocol used to test the ability of various compounds to protect the heart against heart failure. The aortic arc was exposed via midline incision in the chest cavity of anesthetized mice. A 27-gauge needle was tied against the transverse aorta and then promptly removed to create a ligature constriction. In vivo cardiac function was assessed by transthoracic echocardiography performed at 24-hour, 3-week, and 6-week time-points after TAC. Ventricular remodeling was determined by evaluation of heart weights (HW) and heart weight to body weight ratios (HW/BW). At study termination, hearts were excised, fixed, sectioned at 6 μm and stained with Masson's trichome. The area of fibrosis in myocardial tissue was measured by computerized planimetry on five random fields per heart. A total of 65 to 75 fields were analyzed per treatment group and differences were analyzed by Student's t-test.
Three separate studies were performed to evaluate the efficacy of single agents and combinations with metabolic enhancers in the TAC model of heart failure. In the first study, mice were treated with either trimetazidine alone or trimetazidine+nicotinamide+succinate. In the second study, mice were treated with CV-8814 alone or trimetazidine+nicotinic acid+succinate. In the third study, mice were treated with […], CV-8814, or CV-8972. Overall, the activities of trimetazidine, CV-8814, and CV-8972 on most study endpoints were in good agreement across the three studies. In the third study, the three compounds were analyzed at equivalent mg/kg/day doses on a formula weight basis: 6 mg/kg/d for trimetazidine, 7.5 mg/kg/day for CV-8814; and 10 mg/kg/day for CV-8972. Therefore, the results from the third study are summarized here.

[2] = 20 μM perfusion, initial single agent study

| Compound | infarct size (explanted mouse hearts) | left ventricular developed pressure (LVDP) at 20 min (explanted mouse hearts; [2]) | left ventricular developed pressure (LVDP) at 170 min (explanted mouse hearts; [2]) | coronary flow at the end of the reperfusion period (explanted mouse hearts; 20 μM perfusion, initial single agent study, control 54±6) | reduction of myocardial infarct size (explanted mouse hearts) | left ventricular fractional shortening (FS) at Week 6 ([1]; CV-8972 10, CV-8814 7.5 mg/kg/day, control 34%±3%) | fibrosis of myocardial tissue after six weeks [1] | isovolumic relaxation time (IVRT) at Week 6 ([1]; control 35±1) | isovolumic relaxation time (IVRT) at the three-week assessment ([1]; control 36±1) | left ventricular ejection fraction (EF) throughout the six-week study [1] | LVDP (explanted mouse hearts; 20 μM TMZ alone, separate study, printed as TMZ vs. control) | LVDP at T20 (explanted mouse hearts; 20 μM each, combination study) | LVDP at T170 (explanted mouse hearts; 20 μM each, combination study) | diastolic function during TAC-induced heart failure ([1]; TMZ 6 mg/kg/d) | effect on FS ([1]; TMZ 6 mg/kg/d) |
| --- | --- | --- | --- | --- | --- | --- | --- | --- | --- | --- | --- | --- | --- | --- | --- |
| COc1ccc(CN2CCN(CCO)CC2)c(OC)c1OC [CV-8814, 2-[4-[(2,3,4-trimethoxyphenyl)methyl]piperazin-1-yl]ethanol] | 52±4% | 48±8 mmHg | 63±5 mm Hg | 90±14 μl/mL | ~16% | 44%±3% | 6.6±0.6% | 28 ± 2 ms | 33 ± 1 ms | preserved |  |  |  |  |  |
| COc1ccc(CN2CCNCC2)c(OC)c1OC [TMZ, trimetazidine] | 56±3% |  |  |  | ~9% |  | 7.6±1% |  |  | neither TMZ nor nicotinic acid had a beneficial effect | 49±5 mm Hg | 56±6 mm Hg | 49±5 mm Hg | did not preserve diastolic function | did not have a significant effect |
| O=C(O)c1cccnc1 [Nicotinic acid, nicotinic acid, reference compound] |  |  |  |  |  |  | 8.2±1% |  |  | neither TMZ nor nicotinic acid had a beneficial effect |  |  |  |  |  |
